In brackets after ≈: the same amount, converted by molar mass. Where two headings read alike, the source gives them in different places.
Legend:
Psuedo. sp. HH 63 = assay: MIC in vitro; type: cell-based, Pseudo. aeruginosa; conditions: Pseudomonas aeruginosa; Table 1; Psuedo. sp. HH 63; read-out: MIC in vitro
Protocol: (§1) The compounds of Formula I have exceptional antibacterial activity against both Gram-positive and Gram-negative organisms. Minimum inhibitory concentrations (MIC's) ranged from 0.2 to <200 μg./ml. in in vitro testing.

Kleb. pneumo. 4200 = assay: In vivo mouse protection, Kleb. pneumo. 4200; conditions: sc, Table 2, Kleb. pneumo. 4200, s.c., read-out: ED50 in vivo
E. coli 12140 = assay: In vivo mouse protection, E. coli 12140; conditions: Table 2, E. coli 12140, read-out: ED50 in vivo
Serra. marc ATCC 13880 = assay: MIC in vitro; type: cell-based, Serratia marcescens; conditions: Serra. marc ATCC 13880; for MIC: Serratia marcescens, ATCC13880, Table 1, read-out: MIC in vitro; for MIC in vitro: Table 1
Protocol: as §1

S. aureus HH 127 = assay: MIC in vitro; type: cell-based; conditions: Staphylococcus aureus, S. aureus HH 127
Protocol: as §1

shigella HH 117 = assay: MIC in vitro; type: cell-based
Protocol: as §1

E. coli HH 33779 = assay: MIC in vitro; type: cell-based; conditions: E. coli HH 33779; for MIC: Escherichia coli, HH33779, Table 1, read-out: MIC in vitro; for MIC in vitro: Table 1
Protocol: as §1

Strep. Faecalis HH 34358 = assay: MIC in vitro; type: cell-based; conditions: Table 1, Strep. Faecalis HH 34358; for MIC: Enterococcus faecalis, read-out: MIC in vitro
Protocol: as §1

E. coli SK 12140 = assay: MIC in vitro; type: cell-based; conditions: Escherichia coli, E. coli SK 12140
Protocol: as §1

S. aureus SK 23390 = assay: MIC in vitro; type: cell-based; conditions: S. aureus SK 23390; for MIC: Staphylococcus aureus, SK23390, Table 1, read-out: MIC in vitro
Protocol: as §1

Salmonella ATCC 12176 = assay: MIC in vitro; type: cell-based; conditions: for MIC: Salmonella; for MIC in vitro: Table 1
Protocol: as §1

S. villaluz = assay: MIC in vitro; type: cell-based; conditions: Table 1
Protocol: as §1

Proteus morgani 179 = assay: MIC in vitro; type: cell-based; conditions: for MIC: Table 1, read-out: MIC in vitro
Protocol: as §1

[1] = system: Entero. aerog. ATCC 13048; assay: MIC in vitro; type: cell-based, Enterobacter aerogenes; conditions: Klebsiella aerogenes, ATCC13048, Table 1; Entero. aerog. ATCC 13048; read-out: MIC in vitro
Protocol: as §1

Kleb. pneumo. SK 4200 = assay: MIC in vitro; type: cell-based, Kleb. pneumoniae; conditions: Table 1, Kleb. pneumo. SK 4200; for MIC: Klebsiella pneumoniae, read-out: MIC in vitro
Protocol: as §1

Kleb. pneumo. SK 1200 = assay: MIC in vitro; type: cell-based, Kleb. pneumoniae; conditions: Klebsiella pneumoniae, read-out: MIC in vitro
Protocol: as §1

Entero. cloacae HH 31254 = assay: MIC in vitro; type: cell-based; conditions: Enterobacter cloacae
[2] = Escherichia coli, 12140, po, p.o.
[3] = Escherichia coli, 12140, sc, s.c.
[4] = HH127, Table 1, read-out: MIC in vitro
[5] = HH117, Table 1, shigella HH 117, read-out: MIC in vitro
[6] = SK12140, Table 1, read-out: MIC in vitro
[7] = ATCC12176, Table 1, read-out: MIC in vitro
[8] = HH31254, Table 1, read-out: MIC in vitro
[9] = HH127, read-out: MIC in vitro, Table 1
[10] = HH31254, read-out: MIC in vitro, Table 1

Row | SMILES | MIC (Psuedo. sp. HH 63) [µg/mL] | ED50 (Kleb. pneumo. 4200) [mg/kg] | ED50 (E. coli 12140; [2]) [mg/kg] | ED50 (E. coli 12140; [3]) [mg/kg] | MIC (Serra. marc ATCC 13880) [µg/mL] | MIC (S. aureus HH 127; [4]) [µg/mL] | MIC (shigella HH 117; [5]) [µg/mL] | MIC (E. coli HH 33779) [µg/mL] | MIC (Strep. Faecalis HH 34358) [µg/mL] | MIC (E. coli SK 12140; [6]) [µg/mL] | MIC (S. aureus SK 23390) [µg/mL] | MIC (Salmonella ATCC 12176; [7]) [µg/mL] | MIC (S. villaluz) [µg/mL] | MIC (Proteus morgani 179) [µg/mL] | MIC [1] [µg/mL] | MIC (Kleb. pneumo. SK 4200) [µg/mL] | MIC (Kleb. pneumo. SK 1200) [µg/mL] | MIC (Entero. cloacae HH 31254; [8]) [µg/mL] | MIC in vitro (Serra. marc ATCC 13880) [µg/mL] | MIC (Entero. cloacae HH 31254; [10]) [µg/mL] | also measured
1 | NS(=O)(=O)CCn1nnnc1SCC1=C(C(=O)O)N2C(=O)C(NC(=O)Cc3cccs3)[C@H]2SC1 (some centres unmarked) [VIII, 7-(2-thienylacetamido)-3-[1-(2-sulfamoylethyl)tetrazol-5-ylthiomethyl]-3-cephem-4-carboxylic acid] | > 200 | 2 | > 50 | 1.32 | 200 (≈ 367 µM) | 0.4 (≈ 0.733 µM) | 0.4 (≈ 0.733 µM) | 1.6 (≈ 2.93 µM) | 6.3 (≈ 11.5 µM) | 0.8 (≈ 1.47 µM) | 0.1 (≈ 0.183 µM) | 0.8 (≈ 1.47 µM) | 1.6 (≈ 2.93 µM) | > 200 | 3.1 (≈ 5.68 µM) | 1.6 (≈ 2.93 µM) | 0.4 (≈ 0.733 µM) | 0.8 (≈ 1.47 µM) | – | – | –
2 | O=C(O)C1=C(CSc2nnnn2CS(=O)(=O)O)CS[C@@H]2C(NC(=O)[C@H](O)c3ccccc3)C(=O)N12 (stereo partly drawn) [I, 7-D-Mandelamido-3-(1-sulfomethyltetrazol-5-ylthiomethyl)-3-cephem-4-carboxylic acid] | > 200 | 0.28 | – | 1.56 | 12.5 (≈ 23 µM) | 6 (≈ 11.1 µM) | 0.4 (≈ 0.737 µM) | 3.1 (≈ 5.71 µM) | 50 (≈ 92.2 µM) | 0.8 (≈ 1.47 µM) | – | 0.8 (≈ 1.47 µM) | – | 3 (≈ 5.53 µM) | – | 0.8 (≈ 1.47 µM) | – | 3 (≈ 5.53 µM) | 13 (≈ 24 µM) | 0.8 (≈ 1.47 µM) | MIC (S. aureus HH 127; [9]): 3.1 µg/mL (≈ 5.71 µM); MIC in vitro (E. coli HH 33779): 1.6 µg/mL (≈ 2.95 µM); MIC in vitro (Strep. Faecalis HH 34358): 100 µg/mL (≈ 184 µM); MIC in vitro (Salmonella ATCC 12176): 0.4 µg/mL (≈ 0.737 µM); MIC in vitro (Proteus morgani 179; Table 1): 3.1 µg/mL (≈ 5.71 µM)
3 | O=C(O)C1=C(CSc2nnnn2CCCCCS(=O)(=O)O)CS[C@@H]2C(NC(=O)[C@H](O)c3ccccc3)C(=O)N12 (stereo partly drawn) [IV, 7-D-Mandelamido-3-[1-(5-sulfopentyl)tetrazol-5-ylthiomethyl]-3-cephem-4-carboxylic acid] | > 200 | 15.7 | > 50 | 18 | 100 (≈ 167 µM) | – | 0.8 (≈ 1.34 µM) | 6.3 (≈ 10.5 µM) | 50 (≈ 83.5 µM) | 1.6 (≈ 2.67 µM) | 0.8 (≈ 1.34 µM) | 3.1 (≈ 5.18 µM) | 12.5 (≈ 20.9 µM) | 3.1 (≈ 5.18 µM) | 6.3 (≈ 10.5 µM) | 1.6 (≈ 2.67 µM) | – | – | – | 0.8 (≈ 1.34 µM) | MIC (S. aureus HH 127; [9]): 3.1 µg/mL (≈ 5.18 µM); MIC (Kleb. pneumo. SK 1200; Table 1, Kleb. pneumo. SK 1200): 1.6 µg/mL (≈ 2.67 µM)
4 | O=C(Cc1cccs1)NC1C(=O)N2C(C(=O)O)=C(CSc3nnnn3CS(=O)(=O)O)CS[C@H]12 (some centres unmarked) [V, 7-(2-thienylacetamido)-3-(1-sulfomethyltetrazol-5-ylthiomethyl)-3-cephem-4-carboxylic acid] | > 200 | 0.26 | > 50 | 4 | 100 (≈ 188 µM) | 0.8 (≈ 1.5 µM) | 1.6 (≈ 3 µM) | 6.3 (≈ 11.8 µM) | 25 (≈ 46.9 µM) | 1.6 (≈ 3 µM) | 0.4 (≈ 0.751 µM) | 0.8 (≈ 1.5 µM) | – | > 200 | 12.5 (≈ 23.5 µM) | 1.6 (≈ 3 µM) | 0.4 (≈ 0.751 µM) | 1.6 (≈ 3 µM) | 200 (≈ 376 µM) | – | MIC in vitro (Strep. Faecalis HH 34358): 50 µg/mL (≈ 93.9 µM); MIC in vitro (Kleb. pneumo. SK 4200): 0.8 µg/mL (≈ 1.5 µM)
5 | O=C(CSC(F)(F)F)NC1C(=O)N2C(C(=O)O)=C(CSc3nnnn3CS(=O)(=O)O)CSC12 (centres unmarked) [VII, 7-Trifluoromethylthioacetamido-3-(1-sulfomethyltetrazol-5-ylthiomethyl)-3-cephem-4-carboxylic acid] | > 200 | 0.24 | – | 0.86 | 200 (≈ 363 µM) | 0.8 (≈ 1.45 µM) | – | 3.1 (≈ 5.63 µM) | 50 (≈ 90.8 µM) | 0.8 (≈ 1.45 µM) | 0.8 (≈ 1.45 µM) | – | – | 100 (≈ 182 µM) | – | 0.4 (≈ 0.727 µM) | – | 3.1 (≈ 5.63 µM) | 100 (≈ 182 µM) | 0.8 (≈ 1.45 µM) | MIC (shigella HH 117; Shigella, HH117, read-out: MIC in vitro): 0.8 µg/mL (≈ 1.45 µM); MIC in vitro (E. coli HH 33779): 1.6 µg/mL (≈ 2.91 µM); MIC (E. coli SK 12140; SK12140, read-out: MIC in vitro, Table 1): 0.4 µg/mL (≈ 0.727 µM); MIC in vitro (S. aureus SK 23390; Table 1): 0.4 µg/mL (≈ 0.727 µM); MIC (Salmonella ATCC 12176; ATCC12176, read-out: MIC in vitro, Table 1): 0.4 µg/mL (≈ 0.727 µM); MIC in vitro (Salmonella ATCC 12176): 0.2 µg/mL (≈ 0.363 µM); MIC in vitro (Kleb. pneumo. SK 4200): 0.2 µg/mL (≈ 0.363 µM); MIC (Kleb. pneumo. SK 1200; Table 1, Kleb. pneumo. SK 1200): 0.2 µg/mL (≈ 0.363 µM)
